Structure (SMILES) | melting point
COc1ccc(-c2[nH]c(C(=O)NCCCCCC(=O)NO)c(-c3ccccc3)c2[N+](=O)[O-])cc1 [Example 7] | 126 to 127 °C
COc1ccc(-c2cc(-c3ccccc3)c(C(=O)NCCCCCC(=O)NO)[nH]2)cc1 [Example 6] | 157 to 158 °C
CNNC(=O)NCCCCNC(=O)c1[nH]c(-c2ccc(OC)cc2)c([N+](=O)[O-])c1-c1cccs1 [Example 11, 1-(4-(5-(4-methoxyphenyl)-4-nitro-3-(thiophene-2-yl)-1H-pyrrole-2-carboxamide)butyl)-3-(2-methylamine)urea] | 185 to 187 °C
O=C(O)CCCCCNC(=O)c1[nH]c(-c2ccccc2)c([N+](=O)[O-])c1-c1ccccc1 [Example 5, 6-(4-nitro-3,5-diphenyl-1H-pyrrole-2-carboxamide)hexanoic acid] | 153 to 154 °C
COc1ccc(-c2cc(-c3ccccc3)[nH]c2C(=O)NCCCCCC(=O)NO)cc1 [Example 8] | 142 °C
O=C(O)CCCCCNC(=O)c1[nH]c(-c2ccccc2)cc1-c1ccccc1 [Example 4, 6-(3,5-diphenyl-1H-pyrrole-2-carboxamide)hexanoic acid] | 228 to 229 °C

Source: patent publication US20080262073A1, “Pyrrolic Derivatives with Histone Deacetylase Inhibitory Activity” (priority 2005, published 2008)
